In US8216782B2, “PTTG1 as a biomarker for cancer treatment” (Cedars-Sinai Medical Center, priority 2008, dated 2012):

Columns and labels:
Format in all cases: cell-based
[1] = test system: HCT116 PTTG1−/− cells; assay: WST-1 cell proliferation assay; conditions: for sensitivity of PTTG1−/− cell growth versus WT (WST-1): PTTG1−/− vs WT HCT116 cells
Protocol: (§1) FIG. 4 depicts that PTTG1 regulates cell response to Aurora Kinase inhibition, in accordance with an embodiment of the present invention. (A) PTTG1^−/− cell proliferation was attenuated in response to Aurora Kinase A siRNA (mean±S.D., n=3. P<0.05 vs WT). Cells were seeded into 96-well plates, cultured overnight, and then transfected with siRNAs (100 nM). After 72 hours, premixed WST-1 cell proliferation reagent (10 ul) was added to each well. Cells were incubated for a further four hours and shaken thoroughly for one minute before measurement. […] Cells were seeded into 96-well plates, cultured overnight, and then treated with drug as indicated for 48 hours. Viable cells were measured using Premixed WST-1 cell proliferation reagent. (C) Anchorage-dependent colony formation assay was performed as described herein. […] (mean±S.D., n=3. P<0.05 vs WT) (D) Western blot showing that over-expressed PTTG1 rescued PTTG1^−/− sensitivity to Aurora Kinase inhibitor III (12.5 uM) (mean±S.D., n=3. P>0.05 vs WT); PTTG1 knock-down enhanced WT cell sensitivity to Aurora Kinase inhibitor III (12.5 uM) (mean±S.D., n=3. P>0.05 vs PTTG1^−/−). PTTG1^−/−=PTTG1-null or KO cells.
(§2) Cell proliferation was evaluated using WST-1 cell proliferation reagent (obtained from Clontech Laboratories, Inc.; Mountain View, Calif.). Briefly, 90 μl cells were seeded into 96-well plates and cultured overnight, treated with drugs for 48 hours, and 10 μl premixed WST-1 cell proliferation reagent added. Cells were incubated for a further four hours, shaken and absorbance measured at 450 nm using a Victor 3 multiwell plate reader (obtained from PerkinElmer, Inc.; Waltham, Mass.). Cell viability rate was calculated for each well as A450 treated cells/A450 control cells×100% (A450: OD value at 450 nm).

[2] = test system: HCT116 WT cells; assay: WST-1 cell proliferation assay
Protocol: as §1, §2

[3] = test system: HCT116 PTTG1−/− cells; assay: Anchorage-dependent colony formation assay; conditions: PTTG1−/− vs WT HCT116 cells
Protocol: Briefly, 20,000 cells were plated in a six-well culture dish, allowed to attach overnight and treated with depicted drug concentrations. Cells were cultured in standard culture medium containing indicated treatments for twelve days and medium re-freshened every three days. Colonies were stained with 0.5% crystal violet in methanol/acetic acid (3:1) and those composed of >50 cells were counted.

[4] = test system: HCT116 PTTG1−/− cells; assay: BrdU incorporation assay
Protocol: The BrdU incorporation assay was carried out using a commercial kit. Briefly, culture cells in 96-well microplates in a final volume of 100 ul culture medium per well. After treatment, add 10 ul BrdU labeling solution per well (final concentration: 10 uM BrdU) and incubate for 2-18 h at 37° C. Carefully remove the culture medium and wash cells twice with 250 ul wash medium containing 10% serum per well. Cells fixed and treated with nucleases working solution for 30 min at 37° C. The incorporated BrdU is detected using anti-BrdU-POD, Fab fragments and peroxidase substrate ABTS. The absorbances of the samples are measured at 405 nm against the background control, using a Victor 3 multiwell plate reader.

O=C(Nc1cccc(Nc2nccc(Nc3cccc(C(F)(F)F)c3)n2)c1)C1CC1 [Aurora Kinase Inhibitor III, Cyclopropanecarboxylic acid-(3-(4-(3-trifluoromethyl-phenylamino)-pyrimidin-2-ylamino)-phenyl)-amide]
effect on the WT versus PTTG1−/− difference in response to doxorubicin ([1]; 3 μM inhibitor pre-incubation or siRNA, 0.63 μM doxorubicin): abolished the different response
viability at 12.5 µM ([1]; Homo sapiens, HCT-116, PTTG1-null HCT116 cells, 12.5 uM for 48 h, read-out: cells remaining viable): 56%
sensitivity of PTTG1−/− cell growth versus WT (WST-1) [1]: more sensitive
viability at 12.5 µM ([2]; Homo sapiens, HCT-116, WT cells, 12.5 uM for 48 h, read-out: cells remaining viable): 73%
sensitivity of PTTG1−/− cells versus WT (colony formation) [3]: more sensitive

PTTG1 siRNA: siRNA 16706, SEQ. ID. NO.: 7 and 8, purchased from Ambion (chain 1 GUCUGUAAAGACCAAGGGA; chain 2 UCCCUUGGUCUUUACAGAC; listed as RNA, chemistry not given here; listed as Homo sapiens)
effect of PTTG1 knock down on sensitivity to Aurora Kinase inhibitor III ([2]; WT HCT116 cells, inhibitor III 12.5 uM): increased HCT116 cell sensitivity

CC(=O)N[C@@H](CS)C(=O)O [N-acetyl cysteine (NAC), N-acetyl cysteine]
effect of ROS quencher on PTTG1−/− cell sensitivity to ROS-generating agents [4]: rescue PTTG1−/− cells sensitivity

S=C=NCCc1ccccc1 [PEITC, phenethyl isothiocyanate]
sensitivity of PTTG1−/− cells to ROS-generating agents [4]: enhanced sensitivity

Nc1nc(Nc2ccc(S(N)(=O)=O)cc2)nn1C(=O)c1c(F)cccc1F [Aurora Kinase/CDK inhibitor, 4-(5-Amino-1-(2,6-difluorobenzoyl)-1H-[1,2,4]triazol-3-ylamino)-benzenesulfonamide]
sensitivity of PTTG1−/− cell growth versus WT (WST-1) [1]: more susceptible than WT cells

OO [H2O2]
sensitivity of PTTG1−/− cells to ROS-generating agents [4]: enhanced sensitivity

COc1cc2ncnc(Nc3ccc(NC(=O)c4ccccc4)cc3)c2cc1OC [Aurora Kinase Inhibitor II, 4-(4′-Benzamidoanilino)-6,7-dimethoxyquinazoline]
sensitivity of PTTG1−/− cell growth versus WT (WST-1) [1]: more susceptible than WT cells
